The record followed here is ChEMBL document CHEMBL1146413, “New polyhalogenated monoterpenes from the sea hare Aplysia punctata” (1997).

SMILES strings stand for the structures. ≈ marks a conversion by molar mass, not a printed value.

Common to all, as to format: functional
Details in all cases: read-out: ED50 (the source's name)

One test concerns HT-29. As to the kind of experiment: Cytotoxicity against human HT-29 cells.
For another test, the system named is P388. In words: Cytotoxicity against mouse P388 cells.
Another test concerns SK-MEL-28. In words: Cytotoxicity against human SK-MEL-28 cells.
In a further test the test system is A549. In words: Cytotoxicity against human A549 cells.

Turning to `CC(=O)OCC/C(C)=C(Cl)/C=C/C(C)(Cl)CBr` (configuration not stated), the EC50 in the test on HT-29 was 2.5 µg/mL (≈ 7.27 µM); in the test on P388, 2.5 µg/mL (≈ 7.27 µM); with SK-MEL-28, 1.5 µg/mL (≈ 4.36 µM); in the test on A549 it was 1.5 µg/mL (≈ 4.36 µM).

In the case of `CC(=O)OCCC(C)C(=O)CC/C(=C/Cl)C(Cl)Cl` (configuration not stated), the EC50 with HT-29 was found to be 2.5 µg/mL (≈ 7.92 µM); with P388, 2.5 µg/mL (≈ 7.92 µM); with SK-MEL-28, 1.5 µg/mL (≈ 4.75 µM); with A549, 1.5 µg/mL (≈ 4.75 µM).

On to `CC(=O)OCCC(C)C(=O)CC/C(=C\Cl)C(Cl)Cl` (configuration not stated), for which the EC50 in the test with HT-29 was 2.5 µg/mL (≈ 7.92 µM); in the test with P388, 2.5 µg/mL (≈ 7.92 µM); with SK-MEL-28, 1.5 µg/mL (≈ 4.75 µM); with A549 it was 1.5 µg/mL (≈ 4.75 µM).
